Values after ≈ are worked out from the molar mass of the structure shown. Values belong to the compound of their own block, whether it stands above or below them. Active and inactive are the calls of the source. The rule behind the calls is not given here.
Tests used:
[1] = Aqueous solubility of the compound at 1 to 2 mg measured after 24 hrs by HPLC-MS analysis; assay type: physicochemical; details: aqueous (not further specified), dose 1-2 mg
CFPAC-1 [2] = assay: Inhibition of autophagy at later stage in human CFPAC-1 cells assessed as increase in LC3-II/LC3-I ratio at 10 to 1000 nM incubated for 24 hrs by Western blot analysis; assay type: functional, cell-based; details: dose 10-1000 nM
CFPAC-1 [3] = assay: Downregulation of CDK4 expression level in human CFPAC-1 cells incubated for 24 hrs by Western blot analysis; assay type: functional, cell-based; details: dose 10-1000 nM
CFPAC-1 [4] = assay: Downregulation of cyclin D1 expression level in human CFPAC-1 cells incubated for 24 hrs by Western blot analysis; assay type: functional, cell-based; details: dose 10-1000 nM
CFPAC-1 [5] = assay: Effect on beclin-1 level in human CFPAC-1 cells at 10 to 1000 nM incubated for 24 hrs by Western blot analysis; assay type: functional, cell-based; details: dose 10-1000 nM
CFPAC-1 [6] = assay: Inhibition of autophagy at later stage in human CFPAC-1 cells assessed as increase in LC3-II/LC3-I ratio at 1 uM incubated for 24 hrs in presence of chloroquine by Western blot analysis; assay type: functional, cell-based
[7] = Antiproliferative activity against human L02 cells assessed as inhibition of cell proliferation at 1 uM incubated for 72 hrs by SRB assay relative to control; assay type: toxicity, cell-based
MIA PaCa-2 [8] = assay: Antiproliferative activity against human MIA PaCa-2 cells assessed as inhibition of cell proliferation at 1 uM incubated for 72 hrs by SRB assay relative to control; assay type: functional
CFPAC-1 [9] = assay: Antiproliferative activity against human CFPAC-1 cells assessed as inhibition of cell proliferation at 1 uM incubated for 72 hrs by SRB assay relative to control; assay type: functional
PaTu 8988t [10] = assay: Antiproliferative activity against human PaTu 8988t cells assessed as inhibition of cell proliferation at 1 uM incubated for 72 hrs by SRB assay relative to control; assay type: functional
Panc02 [11] = assay: Antiproliferative activity against mouse Panc02 cells assessed as inhibition of cell proliferation at 1 uM incubated for 72 hrs by SRB assay relative to control; assay type: functional
[12] = Antiproliferative activity against human L02 cells assessed as inhibition of cell proliferation incubated for 72 hrs by SRB assay; assay type: toxicity, cell-based
MIA PaCa-2 [13] = assay: Antiproliferative activity against human MIA PaCa-2 cells assessed as inhibition of cell proliferation incubated for 72 hrs by SRB assay; assay type: functional, cell-based; details: MIA PaCa-2, 72 h
CFPAC-1 [14] = assay: Antiproliferative activity against human CFPAC-1 cells assessed as inhibition of cell proliferation incubated for 72 hrs by SRB assay; assay type: functional, cell-based; details: CFPAC-1, 72 h
PaTu 8988t [15] = assay: Antiproliferative activity against human PaTu 8988t cells assessed as inhibition of cell proliferation incubated for 72 hrs by SRB assay; assay type: functional, cell-based
Panc02 [16] = assay: Antiproliferative activity against mouse Panc02 cells assessed as inhibition of cell proliferation incubated for 72 hrs by SRB assay; assay type: functional, cell-based; details: Panc02, 72 h
[17] = Metabolic stability in human liver microsome assessed as half life; assay type: ADME; details: liver microsomes
[18] = Metabolic stability in human liver microsome assessed as intrinsic clearance; assay type: ADME; details: liver microsomes, read-out: CLH
[19] = Metabolic stability in human liver microsome assessed as hepatic clearance; assay type: ADME; details: microsomes
[20] = Metabolic stability in mouse liver microsome assessed as half life; assay type: ADME; details: liver microsomes
[21] = Metabolic stability in mouse liver microsome assessed as intrinsic clearance; assay type: ADME; details: liver microsomes, read-out: CLH
[22] = Metabolic stability in mouse liver microsome assessed as hepatic clearance; assay type: ADME; details: microsomes
CFPAC-1 [23] = assay: Induction of cell cycle arrest in human CFPAC-1 cells assessed as accumulation at G1 phase at 10 nM incubated for 24 hrs by flow cytometry (reference value: 58.6 %); assay type: functional
CFPAC-1 [24] = assay: Induction of cell cycle arrest in human CFPAC-1 cells assessed as accumulation at S phase at 10 nM incubated for 24 hrs by flow cytometry (reference value: 24.5 %); assay type: functional
CFPAC-1 [25] = assay: Induction of cell cycle arrest in human CFPAC-1 cells assessed as accumulation at G2 phase at 10 nM incubated for 24 hrs by flow cytometry (reference value: 14.5 %); assay type: functional
CFPAC-1 [26] = assay: Induction of cell cycle arrest in human CFPAC-1 cells assessed as accumulation at G1 phase at 100 nM incubated for 24 hrs by flow cytometry (reference value: 58.6 %); assay type: functional
CFPAC-1 [27] = assay: Induction of cell cycle arrest in human CFPAC-1 cells assessed as accumulation at S phase at 100 nM incubated for 24 hrs by flow cytometry (reference value: 24.5 %); assay type: functional
CFPAC-1 [28] = assay: Induction of cell cycle arrest in human CFPAC-1 cells assessed as accumulation at G2 phase at 100 nM incubated for 24 hrs by flow cytometry (reference value: 14.5 %); assay type: functional
CFPAC-1 [29] = assay: Induction of cell cycle arrest in human CFPAC-1 cells assessed as accumulation at G1 phase at 1000 nM incubated for 24 hrs by flow cytometry (reference value: 58.6 %); assay type: functional
CFPAC-1 [30] = assay: Induction of cell cycle arrest in human CFPAC-1 cells assessed as accumulation at S phase at 1000 nM incubated for 24 hrs by flow cytometry (reference value: 24.5 %); assay type: functional
CFPAC-1 [31] = assay: Induction of cell cycle arrest in human CFPAC-1 cells assessed as accumulation at G2 phase at 1000 nM incubated for 24 hrs by flow cytometry (reference value: 14.5 %); assay type: functional
CFPAC-1 [32] = assay: Induction of apoptosis in human CFPAC-1 cells assessed as viable cells at 1 uM incubated for 24 hrs by annexin V-FITC/PI staining based flow cytometry (reference value: 93.5 %); assay type: functional; details: read-out: Activity
CFPAC-1 [33] = assay: Induction of apoptosis in human CFPAC-1 cells assessed as early apoptotic cells at 1 uM incubated for 24 hrs by annexin V-FITC/PI staining based flow cytometry (reference value: 3.04 %); assay type: functional
CFPAC-1 [34] = assay: Induction of apoptosis in human CFPAC-1 cells assessed as late apoptotic cells at 1 uM incubated for 24 hrs by annexin V-FITC/PI staining based flow cytometry (reference value: 3.14 %); assay type: functional
CFPAC-1 [35] = assay: Induction of apoptosis in human CFPAC-1 cells assessed as necrotic cells at 1 uM incubated for 24 hrs by annexin V-FITC/PI staining based flow cytometry (reference value: 0.37 %); assay type: functional
CFPAC-1 [36] = assay: Induction of apoptosis in human CFPAC-1 cells assessed as viable cells at 10 uM incubated for 24 hrs by annexin V-FITC/PI staining based flow cytometry (reference value: 93.5 %); assay type: functional; details: read-out: Activity
CFPAC-1 [37] = assay: Induction of apoptosis in human CFPAC-1 cells assessed as early apoptotic cells at 10 uM incubated for 24 hrs by annexin V-FITC/PI staining based flow cytometry (reference value: 3.04 %); assay type: functional
CFPAC-1 [38] = assay: Induction of apoptosis in human CFPAC-1 cells assessed as late apoptotic cells at 10 uM incubated for 24 hrs by annexin V-FITC/PI staining based flow cytometry (reference value: 3.14 %); assay type: functional
CFPAC-1 [39] = assay: Induction of apoptosis in human CFPAC-1 cells assessed as necrotic cells at 10 uM incubated for 24 hrs by annexin V-FITC/PI staining based flow cytometry (reference value: 0.37 %); assay type: functional
Panc02 [40] = assay: Antitumor activity against […] Panc02 cells xenografted in C57BL/6 mouse assessed as tumor growth inhibition at 10 mg/kg, ip administered every two days for 20 days by electronic caliper method relative to control; assay type: functional; details: Panc02, 480 h, time 20 day, read-out: TGI
[41] = Toxicity in C57BL/6 mouse xenografted with […] cells assessed as drug tolerance at 10 mg/kg, ip administered every two days for 20 days; assay type: organism-based; details: in vivo, 480 h, time 20 day
[42] = Toxicity in C57BL/6 mouse xenografted with […] cells assessed as body weight loss at 10 mg/kg, ip administered every two days for 20 days; assay type: organism-based; details: in vivo, 480 h, time 20 day

solubility at 24 h [1]: 0.055 µg/mL
SMILES: COc1cc2c(N)c3c(c(-c4ccc5c(c4)OCO5)c2cc1OC)C(=O)OC3.Cl

SMILES: COc1cc2c(N)c3c(c(-c4ccc5c(c4)OCO5)c2cc1OC)C(=O)OC3
inhibition (CFPAC-1 [2]): Active
Activity (CFPAC-1 [3]): Dose-Dependent Effect
Activity (CFPAC-1 [4]): Dose-Dependent Effect
Activity (CFPAC-1 [5]): inactive
inhibition (CFPAC-1 [6]): Active

IC50 (MIA PaCa-2 [13]): 271 nM
IC50 (Panc02 [16]): 61 nM
half-life [17]: 43.8 min
microsomal CLint [18]: 31.6 µL/min/mg
CLH [19]: 13.2 mL/min/kg
half-life [20]: < 5 min
microsomal CLint [21]: > 277 µL/min/mg
CLH [22]: > 83.2 mL/min/kg
solubility at 24 h [1]: 0.021 µg/mL (≈ 0.0552 µM)
SMILES: COc1cc2c(O)c3c(c(-c4ccc5c(c4)OCO5)c2cc1OC)C(=O)OC3 [DIPHYLLIN]
inhibition at 72 h, 1 µM [7]: 17.7%
inhibition at 1 µM (MIA PaCa-2 [8]): 70.1%
inhibition at 1 µM (CFPAC-1 [9]): 75.4%
inhibition at 1 µM (PaTu 8988t [10]): 77.5%
inhibition at 1 µM (Panc02 [11]): 83.3%
IC50 at 72 h [12]: 3.32 µM
IC50 (CFPAC-1 [14]): 208 nM
IC50 (PaTu 8988t [15]): 102 nM
Activity (CFPAC-1 [23]): 58.9%
Activity (CFPAC-1 [24]): 28.7%
Activity (CFPAC-1 [25]): 10.1%
Activity (CFPAC-1 [26]): 66.7%
Activity (CFPAC-1 [27]): 20.4%
Activity (CFPAC-1 [28]): 10.6%
Activity (CFPAC-1 [29]): 81.9%
Activity (CFPAC-1 [30]): 8.14%
Activity (CFPAC-1 [31]): 7.81%
viability at 1 µM (CFPAC-1 [32]): 89.9%
Activity (CFPAC-1 [33]): 1.99%
Activity (CFPAC-1 [34]): 7.23%
Activity (CFPAC-1 [35]): 0.86%
viability at 10 µM (CFPAC-1 [36]): 87.8%
Activity (CFPAC-1 [37]): 2.1%
Activity (CFPAC-1 [38]): 9.53%
Activity (CFPAC-1 [39]): 0.58%
Activity (CFPAC-1 [5]): inactive
inhibition (CFPAC-1 [6]): Active
inhibition in vivo at 10 mg/kg (Panc02 [40]): 22.6%
Activity [41]: Non-Toxic
Activity [42]: Non-Toxic

From ChEMBL document CHEMBL5352426, “Synthesis and anti-tumor activity of nitrogen-containing derivatives of the natural product diphyllin” (Eur J Med Chem, 2022)
